The results in this text go back to ChEMBL document CHEMBL5728225, “Modulators of P97 AAA ATPase activity” (2021).

Values joined by “and” are separate entries in the source; they are usually repeats but may differ in a detail not shown here. Equal values may be shown once.

This test is described as follows: Biomol Green Assay: Biomol Green (Enzo) […] formed from a biochemical reaction. Because of its high sensitivity, the assay is suitable for monitoring enzyme activities at very early substrate conversions requiring very low amount of enzymes.
With `Cc1cc(OCc2nnc(SC3C=CCCC3)n2-c2cccnc2)ccc1C#CCOC(=O)NN1CCN(C)CC1` (stereo not drawn), the IC50 (as a rule, the concentration needed to halve the response being measured) was 25 nM and 15 nM.

In turn, `Cc1cc(OCc2cnc(SC3C=CCCC3)n2-c2cccnc2)ccc1C#CCOC(=O)NCCN1CCN(C(C)C)CC1` (stereo not drawn) had an IC50 of 26 nM.

The compound `Cc1cc(OCc2nnc(CC3CCCC3)n2-c2cccnc2)ccc1C#CCNC(=O)OC(C)(C)C` gave an IC50 of 260 nM.
